Experiments:
THP-1 [1] = experiment: Drug level in human THP1 cells at 10 mg/L after 2 hrs in presence 250 uM efflux pump inhibitor gemfibrozil relative to control; type: ADME, cell-based; details: thp-1, 2 h
THP-1 [2] = experiment: Drug level in human THP1 cells at 10 mg/L at pH =< 6.5; type: ADME, cell-based
THP-1 [3] = experiment: Drug level in human THP1 cells at 10 mg/L after 2 hrs in presence 10 uM efflux pump inhibitor verapamil relative to control; type: ADME, cell-based; details: thp-1, 2 h
THP-1 [4] = experiment: Drug level in human THP1 cells at 10 mg/L after 2 hrs in presence of 50 uM proton inophore monesin relative to control; type: ADME, cell-based; details: thp-1, 2 h
THP-1 [5] = experiment: Drug level in human THP1 cells at 250 mg/L after 30 mins at pH 6; type: ADME, cell-based; details: thp-1, pH 6, 0.5 h
THP-1 [6] = experiment: Drug level in human THP1 cells at 50 mg/L after 2 hrs in presence of 50 uM proton inophore monesin relative to control; type: ADME, cell-based; details: thp-1, 2 h
THP-1 [7] = experiment: Drug level in human THP1 cells at 250 mg/L after 2 hrs in presence of 50 uM proton inophore monesin relative to control; type: ADME, cell-based; details: thp-1, 2 h
THP-1 [8] = experiment: Drug level in human THP1 cells at 50 mg/L after 30 mins at pH 6; type: ADME, cell-based; details: thp-1, pH 6, 0.5 h
THP-1 [9] = experiment: Ratio of drug level for cellular to extracellular region of human THP-1 cells at 10 to 50 ug/ml; type: ADME, cell-based
J774 [10] = experiment: Drug level in mouse J774 cells at 50 mg/L at pH 6.5; type: ADME, cell-based; details: j774, pH 6.5
[11] = Half life in human THP1 cells at 4 mg/L; type: ADME, cell-based; details: THP-1 cells
THP-1 [12] = experiment: Drug level in human THP1 cells at 50 mg/L after 2 hrs in presence 250 uM efflux pump inhibitor gemfibrozil relative to control; type: ADME, cell-based; details: thp-1, 2 h
[13] = Half life in human PMNC at 4 mg/L; type: ADME
THP-1 [14] = experiment: Drug level in human THP1 cells at 50 mg/L after 2 hrs in presence 60 mM deoxyglucose and 5 mM NaN3 relative to control; type: ADME, cell-based; details: thp-1, 2 h
[15] = Half life in mouse J774 cells at 4 mg/L; type: ADME, cell-based
[16] = Ratio of drug level for cellular to extracellular region of human PMNC cells at 10 to 50 ug/ml; type: ADME, cell-based
THP-1 [17] = experiment: Drug level in human THP1 cells at 50 mg/L at pH < 7 in presence of 50 uM proton inophore monesin; type: ADME, cell-based
THP-1 [18] = experiment: Drug level in human THP1 cells at 50 mg/L after 2 hrs in presence of < 10% fetal calf serum relative to control; type: ADME, cell-based; details: thp-1, 2 h
J774 [19] = experiment: Drug level in mouse J774 cells at 50 mg/L in presence of 50 uM proton inophore monesin relative to control; type: ADME, cell-based
J774 [20] = experiment: Drug level in mouse J774 cells at 50 mg/L after 2 hrs in presence of < 10% fetal calf serum relative to control; type: ADME, cell-based; details: j774, 2 h
THP-1 [21] = experiment: Drug level in human THP1 cells at 50 mg/L after 2 hrs in presence 10 uM efflux pump inhibitor verapamil relative to control; type: ADME, cell-based; details: thp-1, 2 h
THP-1 [22] = experiment: Drug level in human THP1 cells at 50 mg/L at pH 6.5; type: ADME, cell-based; details: thp-1, pH 6.5

CC[C@H]1OC(=O)[C@H](C)[C@@H](O[C@H]2C[C@@](C)(OC)[C@@H](O)[C@H](C)O2)[C@H](C)[C@@H](O[C@@H]2O[C@H](C)C[C@H](N(C)C)[C@H]2O)[C@](C)(O)C[C@@H](C)CN(C)[C@H](C)[C@@H](O)[C@]1(C)O [AZITHROMYCIN]
Ratio (THP-1 [1]): 1.7 | Drug uptake (THP-1 [2]): 10% | Ratio (THP-1 [3]): 1.7

CC(=O)NC[C@H]1CN(c2ccc(N3CCOCC3)c(F)c2)C(=O)O1 [LINEZOLID]
Drug uptake (THP-1 [4]): 10% | Drug uptake (THP-1 [5]): 25% | Drug uptake (THP-1 [6]): 20% | Drug uptake (THP-1 [7]): 25% | Drug uptake (THP-1 [8]): 25%

CC(=O)NC[C@H]1CN(c2ccc(-c3ccc(CNCc4cnn[nH]4)cc3)c(F)c2)C(=O)O1 [RADEZOLID]
Ratio (THP-1 [9]): 8.5 | Drug uptake (THP-1 [4]): 10% | Drug uptake (J774 [10]): Active | half-life at 4 mg/L [11]: 6 min | Drug uptake (THP-1 [12]): Active | half-life at 4 mg/L [13]: 6 min | Drug uptake (THP-1 [14]): Active | half-life at 4 mg/L [15]: 6 min | Ratio [16]: 8.5 | Drug uptake (THP-1 [17]): Active | Drug uptake (THP-1 [5]): 25% | Drug uptake (THP-1 [6]): 20% | Drug uptake (THP-1 [18]): Active | Drug uptake (THP-1 [7]): 25% | Drug uptake (J774 [19]): 30% | Drug uptake (J774 [20]): Active | Drug uptake (THP-1 [21]): Active | Drug uptake (THP-1 [22]): Active | Drug uptake (THP-1 [8]): 25%
